The structures appear in SMILES notation.

Results on 17 compounds are retold here after patent US6048896A, “4-phenyl-4-oxo-2-butenoic acid derivatives with kynurenine-3-hydroxylase inhibiting activity” (Pharmacia & Upjohn S.p.A., priority 1995, dated 2000).

For series [1], the target named is T1, kynurenine-3-hydroxylase (Rattus norvegicus, UniProt O88867). As to the kind of experiment: Kynurenine-3-hydroxylase Assay in the Rat Brain. The series is classed as biochemical. Also noted: from tissue. The note with it: rat brain homogenate, 50 μM L-kynurenine, 60 min incubation, pH 7.5; read-out: Enzyme Inhibition (Brain) IC50. Here is the method:
Kynurenine-3-hydroxylase Assay in the Rat Brain
Brain was homogenized in ice-cold 0.32 M sucrose and centrifuged at 12000×g for 30 min at 4° C. The pellet was washed three times with 0.32 M sucrose by centrifugation and suspended in 0.14 M KCl in 20 mM K-phosphate buffer at pH 7 (1 g tissue in 2 ml buffer).
The reaction mixture contained: 75 μl of suspended homogenate; 100 μl of substrate solution containing 50 mM K-phosphate buffer pH 7.5, 2 mM MgCl2, 0.4 mM NADPH, 50 μM L-kynurenine (final concentration), and 25 μl of different concentrations of inhibitor solutions. The reaction was stopped by addition of 200 μl of 1 M HClO4 after 60 min incubation. L-3-hydroxykynurenine formed was quantified by HPLC with coulometric detection at a working voltage of +0.2 V. The column was a 10 cm C18 reversed phase (3 μm. The mobile phase consisted of 950 ml distilled water, 20 ml acetonitrile, 9 ml triethylamine, 5.9 ml phosphoric acid, 100 mg sodium EDTA and 1.5 g heptanesulfonic acid. The flow rate was 1 ml/min.

For series [2], the target named is T1, kynurenine-3-hydroxylase. The experiment in a line: Kynurenine-3-hydroxylase Assay in the Rat Liver. The series is classed as biochemical. On the set-up: Rat liver mitochondrial extract was used as enzymatic preparation for this assay; from tissue; host or cells: rat liver mitochondrial extract. The note with it: rat liver mitochondrial extract, 0.025 mM L-kynurenine, 37° C., 30 min, pH 8.1; read-out: Enzyme Inhibition (Liver) IC50. As to the method:
Kynurenine-3-hydroxylase Assay in the Rat Liver
The assay for kynurenine 3-hydroxylase was based on the enzymatic synthesis of tritiated water during the hydroxylation reaction. Radiolabeled water was quantified following selective adsorption of the isotopic substrate and its metabolite with activated charcoal.
Rat liver mitochondrial extract was used as enzymatic preparation for this assay.
The assay for kynurenine 3-hydroxylase activity was carried out at 37° C. for a time of 30 min. The reaction mixture of a total volume of […] was constituted of […] of suspended extract, 100 mM Tris/Cl^- buffer pH 8.1, 10 mM EDTA, 100 mM KCl, 0.8 mM NADPH, 0.025 mM L-kynurenine, […] L-(3,5-^3 H)Kynurenine (10 Ci/mmol) and […] of different concentration of inhibitor solutions. After the incubation the reaction was terminated by the addition of 1 mL of 7.5% (w/v) activated charcoal, vortexed and centrifugated for 7 min.
A […] aliquot of supernatant was counted by scintillation spectroscopy in 5 ml of liquid scintillation.

Series [3] deals with N-methyl-D-aspartate (NMDA) receptor. The note with it: cited from earlier work.
The next series has as its system CNS. The note with it: cited from earlier work.
A further series deals with neuronal cell cultures. The following applies: relatively low concentrations, prolonged period of time or in combination with glutamate; cited from earlier work.
Series [4] relates to ionotropic excitatory aminoacid receptors. The note with it: preferentially at glycine co-agonist site of the NMDA receptor; cited from earlier work.

T1 sequence (O88867 whole entry): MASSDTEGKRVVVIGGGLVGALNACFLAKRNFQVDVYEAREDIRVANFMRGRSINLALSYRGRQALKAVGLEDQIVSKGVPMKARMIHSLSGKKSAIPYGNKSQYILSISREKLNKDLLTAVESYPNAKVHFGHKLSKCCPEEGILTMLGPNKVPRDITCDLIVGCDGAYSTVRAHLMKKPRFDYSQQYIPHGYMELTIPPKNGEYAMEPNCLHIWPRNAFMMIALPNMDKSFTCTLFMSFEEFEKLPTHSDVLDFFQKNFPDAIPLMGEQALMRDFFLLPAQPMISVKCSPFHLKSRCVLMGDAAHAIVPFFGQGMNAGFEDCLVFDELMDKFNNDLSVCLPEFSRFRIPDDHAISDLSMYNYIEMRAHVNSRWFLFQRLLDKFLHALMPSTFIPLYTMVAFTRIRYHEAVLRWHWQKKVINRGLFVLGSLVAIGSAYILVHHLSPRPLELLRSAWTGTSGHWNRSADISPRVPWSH

For orientation: IC50 means the concentration that inhibits the measured activity by half. As to `COC(=O)/C(O)=C\C(=O)c1ccc(Cl)c(Cl)c1` [PNU 158775, Methyl-(E)-2-hydroxy-4-(3',4'-dichlorophenyl)-4-oxo-2-butenoate], the half-maximal inhibitory concentration (IC50) is 0.95 µM on kynurenine-3-hydroxylase [1] and 6.9 µM at kynurenine-3-hydroxylase [2].
With `O=C(O)/C(O)=C\C(=O)c1cccc(Cl)c1` [PNU 161216, (E)-2-hydroxy-4-(3'-chlorophenyl)-4-oxo-2-butenoic acid], the IC50 at kynurenine-3-hydroxylase [1] is 6.9 µM; on kynurenine-3-hydroxylase [2], 1.2 µM.
For `O=C(O)/C=C/C(=O)c1ccc(Cl)c(Cl)c1` [PNU 157694, (E)-4-(3',4'-dichlorophenyl)-4-oxo-2-butenoic acid], the results for the half-maximal inhibitory concentration (IC50) at kynurenine-3-hydroxylase [1] and on kynurenine-3-hydroxylase [2] were 0.9 µM and 10.4 µM, respectively.
Take `O=C(O)/C(O)=C\C(=O)c1ccc(Cl)c(Cl)c1` [PNU 158776, (E)-2-hydroxy-4-(3',4'-dichlorophenyl)-4-oxo-2-butenoic acid]: the half-maximal inhibitory concentration (IC50) is 0.3 µM on kynurenine-3-hydroxylase [1] and 1.8 µM at kynurenine-3-hydroxylase [2].
The matching figures for `CCOC(=O)/C(O)=C\C(=O)c1ccc(Cl)c(Cl)c1` [PNU 161215, Ethyl-(E)-2-hydroxy-4-(3',4'-dichlorophenyl)-4-oxo-2-butenoate]: 2.01 µM and 1.9 µM.
As for `O=C(O)/C(O)=C\C(=O)c1ccc(Cl)cc1` [PNU 166909, (E)-2-hydroxy-4-(4'-chlorophenyl)-4-oxo-2-butenoic acid], the IC50 on kynurenine-3-hydroxylase [2] is 8.9 µM.
Consider `O=C(O)c1cccnc1C(=O)O` [QUIN, quinolinic acid], for which, in series [3], the “activity at NMDA receptor” value is “highly selective agonist”. The “in vivo convulsions and lesions” value with CNS (in vivo) was “produce convulsions and axon sparing lesions”. The “effect when injected in the CNS” value with CNS is recorded as “neurotoxin”. Moreover, the “neurotoxicity in neuronal cell cultures” value in the series with neuronal cell cultures was “neurotoxic”.
Regarding `O=C(O)/C=C/C(=O)c1cccc(F)c1` [PNU 158388, (E)-4-(3'-fluorophenyl)-4-oxo-2-butenoic acid], the half-inhibitory concentration (IC50) was determined as 21.8 µM at kynurenine-3-hydroxylase [1] and 38.6 µM on kynurenine-3-hydroxylase [2].
The corresponding values for `O=C(O)/C(O)=C\C(=O)c1ccc(F)c(F)c1` [PNU 161219, (E)-2-hydroxy-4-(3',4'-difluorophenyl)-4-oxo-2-butenoic acid] are 0.44 µM and 1.2 µM.
The corresponding values for `O=C(O)/C=C/C(=O)c1cccc([N+](=O)[O-])c1` [PNU 158389, (E)-4-(3'-nitrophenyl)-4-oxo-2-butenoic acid] are 16.6 µM and 30.4 µM.
Consider `CC(=CC(=O)O)C(=O)c1ccc(Cl)c(Cl)c1` [PNU 161213, 3-methyl-4-(3',4'-dichlorophenyl)-4-oxo-2-butenoic acid], for which, on kynurenine-3-hydroxylase [2], the IC50 was determined as 26.2 µM.
In the case of `O=C(O)/C(O)=C\C(=O)c1cccc(F)c1` [PNU 161217, (E)-2-hydroxy-4-(3'-fluorophenyl)-4-oxo-2-butenoic acid], the concentration for half-maximal inhibition (IC50) on kynurenine-3-hydroxylase [1] was 0.97 µM; at kynurenine-3-hydroxylase [2], 2.8 µM.
The corresponding values for `O=C(O)/C=C/C(=O)c1ccc(F)c(F)c1` [PNU 157961, (E)-4-(3',4'-difluorophenyl)-4-oxo-2-butenoic acid] are 1.1 µM and 21.1 µM.
For the compound `O=C(O)c1cc(=O)c2ccccc2[nH]1` [KYNA, kynurenic acid], in series [4], the “activity at ionotropic excitatory aminoacid receptors” value is recorded as “broad spectrum antagonist”. Besides, the “prevention of excitotoxic neuronal damage evoked by QUIN” value with CNS (co-injected with QUIN) is “able to prevent the excitotoxic neuronal damage”. In addition, the “effect when injected in the CNS” value in the series on CNS is listed as “neuroprotective agent”. The “anticonvulsant and neuroprotective properties” value with CNS (several animal models) was “anticonvulsant and neuroprotective properties”.
Turning to `O=C(O)/C=C/C(=O)c1cccc(Cl)c1` [PNU 158390, (E)-4-(3'-chlorophenyl)-4-oxo-2-butenoic acid], the results for the IC50 on kynurenine-3-hydroxylase [1] and at kynurenine-3-hydroxylase [2] were 20.4 µM and 21.9 µM, respectively.
The matching figures for `C/C(=C\C(=O)c1ccc(Cl)c(Cl)c1)C(=O)O` [PNU 158785, (E)-2-methyl-4-(3',4'-dichlorophenyl)-4-oxo-2-butenoic acid]: 3.4 µM and 23.5 µM.
`O=C(O)C=C(Cc1ccccc1)C(=O)c1ccc(Cl)c(Cl)c1` [PNU 167535, 3-benzyl-4-(3',4'-dichlorophenyl)-4-oxo-2-butenoic acid]: the IC50 on kynurenine-3-hydroxylase [2] amounted to 12.3 µM.
